{
  "source": "patent US20240287138A1",
  "about": "“CYCLIC PEPTIDES FOR INHIBITING TNF RECEPTOR 1 ACTIVITY” (Merck Sharp & Dohme LLC, priority 2023, published 2024)",
  "note": "Numbered stars: 1 amine (or outer) side, 2 acyl side, 3 side chain; on linkers, the order of the positions; unused ones are H or OH. Bridge positions count the residues as written; N and C are the ends. Square brackets hold non-standard residues; d marks the D form. Peptide text beside a SMILES is read from it. * marks the point of attachment. Trp(βS-Me,7-OMe) = COc1cccc2c([C@H](C)[C@H](N)C(=O)O)c[nH]c12; Morpholine(3S-CO,6,6-Me2) = CC1(C)CN[C@H](C(=O)O)CO1; Trp(7-CN) = N#Cc1cccc2c(C[C@H](N)C(=O)O)c[nH]c12; Trp(7-Cl) = N[C@@H](Cc1c[nH]c2c(Cl)cccc12)C(=O)O; Phe(3-CONH2) = NC(=O)c1cccc(C[C@H](N)C(=O)O)c1; Phe(4-CONH2) = NC(=O)c1ccc(C[C@H](N)C(=O)O)cc1; Phe(4-COOH) = N[C@@H](Cc1ccc(C(=O)O)cc1)C(=O)O; Trp(7-aza) = N[C@@H](Cc1c[nH]c2ncccc12)C(=O)O; Pip(5R-OH) = O=C(O)[C@@H]1CC[C@@H](O)CN1; X1 = O=C([C@@H]1CC[C@H](N[*:1])C1)[*:2]; Isoxazole(3-carbonyl) = O=C(c1ccon1)*; Pip(4-aza) = O=C(O)[C@@H]1CNCCN1; hPhe = N[C@@H](CCc1ccccc1)C(=O)O; 4Pal = N[C@@H](Cc1ccncc1)C(=O)O; NMeE = CN[C@@H](CCC(=O)O)C(=O)O; dHyp = O=C(O)[C@H]1C[C@H](O)CN1; X7 = CC[C@@H](C(=O)[*:1])[*:2]; Ahp(2) = CCCCC[C@H](N)C(=O)O; αMeS = C[C@](N)(CO)C(=O)O; Carboxymethyl = O=C(O)C*; Nle = CCCC[C@H](N)C(=O)O; Dab = NCC[C@H](N)C(=O)O; Sar = CNCC(=O)O",
  "data": [
    {"target": "T1, TNFα-induced NF-κB signal transduction pathway (TNFR1 signaling) in THP-1 cells (Homo sapiens, UniProt P19438)", "T1 sequence (P19438 30-455)": "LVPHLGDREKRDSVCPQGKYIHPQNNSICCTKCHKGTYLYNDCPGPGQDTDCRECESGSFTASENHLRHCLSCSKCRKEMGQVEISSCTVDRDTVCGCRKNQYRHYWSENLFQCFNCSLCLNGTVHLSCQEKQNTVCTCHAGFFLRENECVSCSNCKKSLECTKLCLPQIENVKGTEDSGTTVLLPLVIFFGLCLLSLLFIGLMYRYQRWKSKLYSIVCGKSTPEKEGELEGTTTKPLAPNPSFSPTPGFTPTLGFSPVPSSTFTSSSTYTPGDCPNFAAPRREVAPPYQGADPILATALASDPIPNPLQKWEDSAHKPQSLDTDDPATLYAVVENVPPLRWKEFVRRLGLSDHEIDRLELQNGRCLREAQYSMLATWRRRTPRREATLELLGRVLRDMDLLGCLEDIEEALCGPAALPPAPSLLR", "experiment": "THP-1 Lucia NF-κB reporter cell assay, inhibition of TNFα-induced NF-κB signaling", "type": "cell-based", "conditions": "THP-1 NF-κB Lucia reporter cells, 10 ng/mL TNFα, 16-18 h, secreted luciferase; read-out: THP-1 IC50", "method_in_brief": "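Macrocyclic peptides were preincubated 1 h at 37 °C with THP-1 NF-κB-Lucia reporter cells (20,000 cells/well) in antibiotic-free RPMI 1640/10% FBS, then stimulated with 10 ng/mL human TNFα overnight (16-18 h). Secreted luciferase in supernatant was read by luminescence; IC50 from 4-parameter logistic fits.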", "units": {"IC50": "nM"}, "values": [
      {"molecule": "CCCC[C@@H]1NC(=O)[C@@H]2CC[C@@H](C2)NC(=O)[C@H]([C@@H](C)c2c[nH]c3c(OC)cccc23)NC(=O)CN(C)C(=O)[C@H](Cc2ccc(O)cc2)NC(=O)[C@H](Cc2ccc(C(N)=O)cc2)NC(=O)[C@](C)(CO)NC(=O)[C@H](Cc2c[nH]c3c(Cl)cccc23)NC(=O)[C@H](Cc2ccncc2)NC(=O)[C@H](CC(N)=O)NC(=O)[C@H](CCC(=O)O)N(C)C(=O)[C@H](Cc2c[nH]c3ccccc23)NC(=O)[C@@H]2CC[C@@H](O)CN2C(=O)[C@H](Cc2ccncc2)NC1=O", "note": "[SEQ ID NO. 163] (cyclo([4Pal][Trp(7-Cl)][αMeS][Phe(4-CONH2)]Y[Sar][Trp(βS-Me,7-OMe)][X1][Nle][4Pal][Pip(5R-OH)]W[NMeE]N))", "IC50": 0.7},
      {"molecule": "CCCC[C@@H]1NC(=O)[C@H](CC)SC[C@@H](C(N)=O)NC(=O)[C@H]([C@@H](C)c2c[nH]c3c(OC)cccc23)NC(=O)CN(C)C(=O)[C@H](Cc2ccc(O)cc2)NC(=O)[C@H](Cc2ccc(C(N)=O)cc2)NC(=O)[C@](C)(CO)NC(=O)[C@H](Cc2c[nH]c3c(Cl)cccc23)NC(=O)[C@H](Cc2ccc(C(=O)O)cc2)NC(=O)[C@H](CC(N)=O)NC(=O)[C@H](CCC(=O)O)N(C)C(=O)[C@H](Cc2c[nH]c3ncccc23)NC(=O)[C@@H]2CC[C@@H](O)CN2C(=O)[C@H](Cc2ccncc2)NC1=O", "note": "[SEQ ID NO. 168] ([Nle][4Pal][Pip(5R-OH)][Trp(7-aza)][NMeE]N[Phe(4-COOH)][Trp(7-Cl)][αMeS][Phe(4-CONH2)]Y[Sar][Trp(βS-Me,7-OMe)]C-NH2; linker N-14 via X7)", "IC50": 1.2},
      {"molecule": "COc1cccc2c([C@H](C)[C@@H]3NC(=O)CN(C)C(=O)[C@H](Cc4cccc(C(N)=O)c4)NC(=O)[C@H](Cc4ccc(C(N)=O)cc4)NC(=O)[C@](C)(CO)NC(=O)[C@H](Cc4c[nH]c5c(Cl)cccc45)NC(=O)[C@H](Cc4ccncc4)NC(=O)[C@H](CC(N)=O)NC(=O)[C@H]4C[C@H](O)CN4C(=O)[C@H](Cc4c[nH]c5ccccc45)NC(=O)[C@@H]4CC[C@@H](O)CN4C(=O)[C@H](Cc4ccncc4)NC(=O)[C@H](CCNC(=O)c4ccon4)NC(=O)[C@@H]4CC[C@@H](C4)NC3=O)c[nH]c12", "note": "[SEQ ID NO. 169] (cyclo([4Pal][Trp(7-Cl)][αMeS][Phe(4-CONH2)][Phe(3-CONH2)][Sar][Trp(βS-Me,7-OMe)][X1][Dab](Isoxazole(3-carbonyl))[4Pal][Pip(5R-OH)]W[dHyp]N))", "IC50": 0.6},
      {"molecule": "CCCC[C@@H]1NC(=O)CSC[C@@H](C(N)=O)NC(=O)[C@H]([C@@H](C)c2c[nH]c3c(OC)cccc23)NC(=O)CN(C)C(=O)[C@H](Cc2ccc(O)cc2)NC(=O)[C@H](Cc2ccc(C(=O)O)cc2)NC(=O)[C@](C)(CO)NC(=O)[C@H](Cc2c[nH]c3c(Cl)cccc23)NC(=O)[C@H](Cc2ccncc2)NC(=O)[C@H](CC(N)=O)NC(=O)[C@H](CCC(=O)O)N(C)C(=O)[C@H](Cc2c[nH]c3ncccc23)NC(=O)[C@@H]2CNCCN2C(=O)[C@H](CCc2ccccc2)NC1=O", "note": "[SEQ ID NO. 172] ({CH2CO}-[Nle][hPhe][Pip(4-aza)][Trp(7-aza)][NMeE]N[4Pal][Trp(7-Cl)][αMeS][Phe(4-COOH)]Y[Sar][Trp(βS-Me,7-OMe)]C-NH2; thioether N-14)", "IC50": 3.9},
      {"molecule": "CCCCC[C@@H]1NC(=O)[C@@H]2CC[C@@H](C2)NC(=O)[C@H]([C@@H](C)c2c[nH]c3c(OC)cccc23)NC(=O)CN(C)C(=O)[C@H](Cc2cccc(C(N)=O)c2)NC(=O)[C@H](Cc2ccc(C(N)=O)cc2)NC(=O)[C@](C)(CO)NC(=O)[C@H](Cc2c[nH]c3c(C#N)cccc23)NC(=O)[C@H](Cc2ccncc2)NC(=O)[C@H](CC(N)=O)NC(=O)[C@H]2C[C@H](O)CN2C(=O)[C@H](Cc2c[nH]c3ccccc23)NC(=O)[C@@H]2CNCCN2C(=O)[C@H](Cc2ccncc2)NC1=O", "note": "[SEQ ID NO. 174] (cyclo([4Pal][Trp(7-CN)][αMeS][Phe(4-CONH2)][Phe(3-CONH2)][Sar][Trp(βS-Me,7-OMe)][X1][Ahp(2)][4Pal][Pip(4-aza)]W[dHyp]N))", "IC50": 0.7},
      {"molecule": "CCCC[C@@H]1NC(=O)CSC[C@@H](C(N)=O)NC(=O)[C@H]([C@@H](C)c2c[nH]c3c(OC)cccc23)NC(=O)CN(C)C(=O)[C@H](Cc2ccc(O)cc2)NC(=O)[C@H](Cc2ccc(C(=O)O)cc2)NC(=O)[C@](C)(CO)NC(=O)[C@H](Cc2c[nH]c3c(Cl)cccc23)NC(=O)[C@H](Cc2ccc(OCC(=O)O)cc2)NC(=O)[C@H](CC(N)=O)NC(=O)[C@H](CCC(=O)O)N(C)C(=O)[C@H](Cc2c[nH]c3ccccc23)NC(=O)[C@@H]2COC(C)(C)CN2C(=O)[C@H](Cc2ccncc2)NC1=O", "note": "[SEQ ID NO. 179] ({CH2CO}-[Nle][4Pal][Morpholine(3S-CO,6,6-Me2)]W[NMeE]NY(Carboxymethyl)[Trp(7-Cl)][αMeS][Phe(4-COOH)]Y[Sar][Trp(βS-Me,7-OMe)]C-NH2; thioether N-14)", "IC50": 2.4}
    ]}
  ]
}
